Experimental data from US20150111737A1, “SYNERGISTIC PESTICIDAL COMPOSITIONS AND RELATED METHODS” (Dow AgroSciences LLC, priority 2013, published 2015).

Tested on: diamondback moth, Plutella xylostella
Assay: Cabbage leaf bioassay (track sprayer) against second instar diamondback moth; synergy judged by Colby's equation
Type: in vivo
Conditions: single active, dose rate 0.0025 weight %, 400 L/Ha spray
Text: The method described in Colby S. R., “Calculating Synergistic and Antagonistic Responses of Herbicide Combinations,” Weeds, 1967, 15, 20-22 was used to determine an existence of synergic effect between the juvenile hormone mimicking compound and the pesticide (I), (II), or any agriculturally acceptable salt thereof in the formulated pesticidal composition. In this method, the percent insect control of the formulated pesticidal composition as observed in the study was compared to the “expected” percent control (E) as calculated by equation (1) (hereinafter “Colby's equation”) below: […]
Bioassays were performed for different active compounds. Cabbage plants with about two to three new-growth-true leaf stage were treated with different active compounds using a track sprayer application at 400 L/Ha spray volume. Three second instar diamondback moths, Plutella xylostella, were infested onto each leaf disc. The percent control of the pesticidal composition against diamondback moth, Plutella xylostella, was determined as the “Observed” action, and compared to those obtained by using about 0.0025 weight % of Compound II, and using about 0.000391 weight % of pyriproxyfen alone. The “Colby's Expected Action” was calculated using Colby's equation as discussed previously. […]
The percent control may be determined some time after treatment.

Row | SMILES | % Control Three Days After Treatment
1 | CCN(C(=O)CC[S+]([O-])CCC(F)(F)F)c1cn(-c2cccnc2)nc1Cl (centres unmarked) [Compound II, N-(3-chloro-1-(pyridin-3-yl)-1H-pyrazol-4-yl)-N-ethyl-3-((3,3,3-trifluoropropyl)sulfinyl)propanamide] | 0%
2 | CCN(C(=O)CCSCCC(F)(F)F)c1cn(-c2cccnc2)nc1Cl [Compound I, N-(3-chloro-1-(pyridin-3-yl)-1H-pyrazol-4-yl)-N-ethyl-3-((3,3,3-trifluoropropyl)thio)propanamide] | 0%
